ChEMBL document CHEMBL3817824, “Synthesis and biological evaluation of new [1,2,4]triazolo[4,3-a]pyridine derivatives as potential c-Met inhibitors” (Bioorg Med Chem, 2016)

Columns and labels:
[1] = Cytotoxicity against human SNU5 cells assessed as reduction in cell survival incubated for 3 days by cell titre-glo assay; conditions: SNU-5, 72 h
[2] = Cytotoxicity against human MHCC97L cells assessed as reduction in cell survival incubated for 3 days by cell titre-glo assay; format: functional, cell-based; conditions: 72 h
NCI-H1993 = experiment: Cytotoxicity against human NCI-H1993 cells assessed as reduction in cell survival incubated for 3 days by cell titre-glo assay; format: functional, cell-based; conditions: NCI-H1993, 72 h
[3] = Cytotoxicity against human HuH7 cells assessed as reduction in cell survival incubated for 3 days by cell titre-glo assay; format: functional, cell-based; conditions: Huh-7, 72 h
[4] = Cytotoxicity against human HCCLM3 cells assessed as reduction in cell survival incubated for 3 days by cell titre-glo assay; format: functional, cell-based; conditions: HCCLM3, 72 h
[5] = target: Tyrosine-protein kinase ABL1 (Homo sapiens, UniProt P00519); experiment: Inhibition of ABL (unknown origin) incubated for 1 hr by spectrophotometric analysis
Sequence of Tyrosine-protein kinase ABL1 (P00519 whole entry): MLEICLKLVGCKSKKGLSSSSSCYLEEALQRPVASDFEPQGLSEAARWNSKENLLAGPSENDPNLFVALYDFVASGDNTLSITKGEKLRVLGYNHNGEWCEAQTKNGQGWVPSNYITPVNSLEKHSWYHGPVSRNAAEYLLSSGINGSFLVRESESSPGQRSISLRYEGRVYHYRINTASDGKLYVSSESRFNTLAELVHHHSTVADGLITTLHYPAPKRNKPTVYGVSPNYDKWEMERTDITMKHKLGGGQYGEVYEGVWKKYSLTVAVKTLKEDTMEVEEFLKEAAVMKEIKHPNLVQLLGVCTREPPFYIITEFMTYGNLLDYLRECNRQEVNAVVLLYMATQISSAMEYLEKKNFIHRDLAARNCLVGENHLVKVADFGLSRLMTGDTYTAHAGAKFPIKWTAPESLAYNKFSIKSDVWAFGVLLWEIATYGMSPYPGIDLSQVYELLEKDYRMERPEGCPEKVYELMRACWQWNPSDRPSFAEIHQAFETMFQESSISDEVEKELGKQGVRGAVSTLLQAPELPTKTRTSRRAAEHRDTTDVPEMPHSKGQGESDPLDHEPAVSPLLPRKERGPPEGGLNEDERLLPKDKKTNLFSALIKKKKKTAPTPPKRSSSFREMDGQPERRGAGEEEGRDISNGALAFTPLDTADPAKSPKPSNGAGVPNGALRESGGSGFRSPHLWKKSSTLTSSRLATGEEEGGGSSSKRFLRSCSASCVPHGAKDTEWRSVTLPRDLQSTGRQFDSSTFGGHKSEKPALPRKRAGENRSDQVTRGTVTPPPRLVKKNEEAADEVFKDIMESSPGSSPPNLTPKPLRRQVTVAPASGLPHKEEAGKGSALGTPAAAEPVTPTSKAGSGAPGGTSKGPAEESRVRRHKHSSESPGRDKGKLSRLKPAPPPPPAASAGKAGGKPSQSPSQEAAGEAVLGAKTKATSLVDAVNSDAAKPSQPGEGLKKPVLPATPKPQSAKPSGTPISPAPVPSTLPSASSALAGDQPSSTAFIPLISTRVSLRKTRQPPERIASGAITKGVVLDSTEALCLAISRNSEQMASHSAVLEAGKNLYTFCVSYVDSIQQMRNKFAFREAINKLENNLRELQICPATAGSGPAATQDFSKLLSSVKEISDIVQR

[6] = target: ALK tyrosine kinase receptor (Homo sapiens, UniProt Q9UM73); experiment: Inhibition of ALK (unknown origin) incubated for 1 hr by spectrophotometric analysis
[7] = target: Tyrosine-protein kinase receptor UFO (Homo sapiens, UniProt P30530); experiment: Inhibition of AXL (unknown origin) incubated for 1 hr by spectrophotometric analysis
[8] = target: Mast/stem cell growth factor receptor Kit (Homo sapiens, UniProt P10721); experiment: Inhibition of c-Kit (unknown origin) incubated for 1 hr by spectrophotometric analysis
Ephrin type-B receptor 1 = Ephrin type-B receptor 1 (Homo sapiens, UniProt P54762); experiment: Inhibition of EPHB1 (unknown origin) incubated for 1 hr by spectrophotometric analysis
[9] = target: Tyrosine-protein kinase Fer (Homo sapiens, UniProt P16591); experiment: Inhibition of FER (unknown origin) incubated for 1 hr by spectrophotometric analysis
[10] = target: Fibroblast growth factor receptor 1 (Homo sapiens, UniProt P11362); experiment: Inhibition of FGFR1 (unknown origin) incubated for 1 hr by spectrophotometric analysis
[11] = target: Fibroblast growth factor receptor 2 (Homo sapiens, UniProt P21802); experiment: Inhibition of FGFR2 (unknown origin) incubated for 1 hr by spectrophotometric analysis
Sequence of Fibroblast growth factor receptor 2 (P21802 whole entry): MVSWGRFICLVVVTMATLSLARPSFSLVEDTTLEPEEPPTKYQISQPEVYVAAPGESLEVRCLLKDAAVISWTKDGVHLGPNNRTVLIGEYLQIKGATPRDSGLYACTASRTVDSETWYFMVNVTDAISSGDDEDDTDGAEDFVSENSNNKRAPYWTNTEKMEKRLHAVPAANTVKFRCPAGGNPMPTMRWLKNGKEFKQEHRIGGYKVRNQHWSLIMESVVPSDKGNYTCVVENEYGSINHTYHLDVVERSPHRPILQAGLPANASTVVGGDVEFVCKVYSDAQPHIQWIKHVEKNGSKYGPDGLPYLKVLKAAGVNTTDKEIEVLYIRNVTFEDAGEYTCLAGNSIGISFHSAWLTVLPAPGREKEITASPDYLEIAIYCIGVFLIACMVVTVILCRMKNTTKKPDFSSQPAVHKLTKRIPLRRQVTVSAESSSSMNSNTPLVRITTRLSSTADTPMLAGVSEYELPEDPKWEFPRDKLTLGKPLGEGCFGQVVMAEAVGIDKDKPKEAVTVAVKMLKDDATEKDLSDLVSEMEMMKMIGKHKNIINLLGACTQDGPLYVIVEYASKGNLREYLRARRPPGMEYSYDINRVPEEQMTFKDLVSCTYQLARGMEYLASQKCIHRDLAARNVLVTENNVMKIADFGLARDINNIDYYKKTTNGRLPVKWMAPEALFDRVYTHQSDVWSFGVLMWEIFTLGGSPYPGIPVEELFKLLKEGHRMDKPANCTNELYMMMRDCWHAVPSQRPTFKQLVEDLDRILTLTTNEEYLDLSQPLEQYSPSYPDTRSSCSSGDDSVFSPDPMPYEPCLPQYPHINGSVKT

[12] = target: Fibroblast growth factor receptor 3 (Homo sapiens, UniProt P22607); experiment: Inhibition of FGFR3 (unknown origin) incubated for 1 hr by spectrophotometric analysis
[13] = target: Fibroblast growth factor receptor 4 (Homo sapiens, UniProt P22455); experiment: Inhibition of FGFR4 (unknown origin) incubated for 1 hr by spectrophotometric analysis
[14] = target: Receptor tyrosine-protein kinase erbB-4 (Homo sapiens, UniProt Q15303); experiment: Inhibition of HER4 (unknown origin) incubated for 1 hr by spectrophotometric analysis
[15] = target: Vascular endothelial growth factor receptor 2 (Homo sapiens, UniProt P35968); experiment: Inhibition of KDR (unknown origin) incubated for 1 hr by spectrophotometric analysis
[16] = target: Leukocyte tyrosine kinase receptor (Homo sapiens, UniProt P29376); experiment: Inhibition of LTK (unknown origin) incubated for 1 hr by spectrophotometric analysis
[17] = target: Platelet-derived growth factor receptor alpha (Homo sapiens, UniProt P16234); experiment: Inhibition of PDGFRalpha (unknown origin) incubated for 1 hr by spectrophotometric analysis
[18] = target: Protein kinase C zeta type (Homo sapiens, UniProt Q05513); experiment: Inhibition of PKCzeta (unknown origin) incubated for 1 hr by spectrophotometric analysis
[19] = target: Serine/threonine-protein kinase N1 (Homo sapiens, UniProt Q16512); experiment: Inhibition of PKN1 (unknown origin) incubated for 1 hr by spectrophotometric analysis
Sequence of Serine/threonine-protein kinase N1 (Q16512 whole entry): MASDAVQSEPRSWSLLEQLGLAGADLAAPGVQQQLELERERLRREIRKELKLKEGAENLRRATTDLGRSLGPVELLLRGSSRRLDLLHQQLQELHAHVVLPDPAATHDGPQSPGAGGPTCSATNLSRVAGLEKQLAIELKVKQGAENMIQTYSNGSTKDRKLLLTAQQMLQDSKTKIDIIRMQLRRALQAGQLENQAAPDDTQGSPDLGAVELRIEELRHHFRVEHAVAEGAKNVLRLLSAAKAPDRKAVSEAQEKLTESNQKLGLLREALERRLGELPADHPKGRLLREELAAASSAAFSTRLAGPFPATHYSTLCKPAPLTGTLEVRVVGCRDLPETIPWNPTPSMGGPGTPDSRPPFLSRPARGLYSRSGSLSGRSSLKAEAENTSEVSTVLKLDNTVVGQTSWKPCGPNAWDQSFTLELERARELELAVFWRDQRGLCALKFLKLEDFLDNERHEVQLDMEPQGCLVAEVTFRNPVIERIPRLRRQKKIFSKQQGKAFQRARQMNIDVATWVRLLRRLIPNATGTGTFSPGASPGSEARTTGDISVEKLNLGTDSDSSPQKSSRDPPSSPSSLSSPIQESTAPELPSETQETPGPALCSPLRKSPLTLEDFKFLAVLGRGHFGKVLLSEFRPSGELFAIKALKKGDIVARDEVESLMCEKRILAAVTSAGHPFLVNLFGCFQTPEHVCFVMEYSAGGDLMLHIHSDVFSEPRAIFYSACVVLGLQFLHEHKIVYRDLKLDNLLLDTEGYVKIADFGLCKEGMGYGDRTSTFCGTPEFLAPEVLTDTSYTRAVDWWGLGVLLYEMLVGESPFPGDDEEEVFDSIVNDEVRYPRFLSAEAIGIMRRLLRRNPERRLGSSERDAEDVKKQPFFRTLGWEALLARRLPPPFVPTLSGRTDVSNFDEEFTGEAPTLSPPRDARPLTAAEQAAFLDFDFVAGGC

[20] = target: Serine/threonine-protein kinase N2 (Homo sapiens, UniProt Q16513); experiment: Inhibition of PKN2 (unknown origin) incubated for 1 hr by spectrophotometric analysis
[21] = target: Proto-oncogene tyrosine-protein kinase receptor Ret (Homo sapiens, UniProt P07949); experiment: Inhibition of RET (unknown origin) incubated for 1 hr by spectrophotometric analysis
[22] = target: Macrophage-stimulating protein receptor (Homo sapiens, UniProt Q04912); experiment: Inhibition of RON (unknown origin) incubated for 1 hr by spectrophotometric analysis
Sequence of Macrophage-stimulating protein receptor (Q04912 25-304 limits assumed): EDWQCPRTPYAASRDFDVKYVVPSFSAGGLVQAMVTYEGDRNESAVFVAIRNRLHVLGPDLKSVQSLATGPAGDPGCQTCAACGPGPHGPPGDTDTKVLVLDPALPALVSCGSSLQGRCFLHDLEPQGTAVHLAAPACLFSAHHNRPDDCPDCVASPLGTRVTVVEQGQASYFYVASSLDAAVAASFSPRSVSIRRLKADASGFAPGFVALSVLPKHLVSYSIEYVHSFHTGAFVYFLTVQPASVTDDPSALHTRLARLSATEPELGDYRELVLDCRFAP
Sequence of Macrophage-stimulating protein receptor (Q04912 310-1400 limits assumed): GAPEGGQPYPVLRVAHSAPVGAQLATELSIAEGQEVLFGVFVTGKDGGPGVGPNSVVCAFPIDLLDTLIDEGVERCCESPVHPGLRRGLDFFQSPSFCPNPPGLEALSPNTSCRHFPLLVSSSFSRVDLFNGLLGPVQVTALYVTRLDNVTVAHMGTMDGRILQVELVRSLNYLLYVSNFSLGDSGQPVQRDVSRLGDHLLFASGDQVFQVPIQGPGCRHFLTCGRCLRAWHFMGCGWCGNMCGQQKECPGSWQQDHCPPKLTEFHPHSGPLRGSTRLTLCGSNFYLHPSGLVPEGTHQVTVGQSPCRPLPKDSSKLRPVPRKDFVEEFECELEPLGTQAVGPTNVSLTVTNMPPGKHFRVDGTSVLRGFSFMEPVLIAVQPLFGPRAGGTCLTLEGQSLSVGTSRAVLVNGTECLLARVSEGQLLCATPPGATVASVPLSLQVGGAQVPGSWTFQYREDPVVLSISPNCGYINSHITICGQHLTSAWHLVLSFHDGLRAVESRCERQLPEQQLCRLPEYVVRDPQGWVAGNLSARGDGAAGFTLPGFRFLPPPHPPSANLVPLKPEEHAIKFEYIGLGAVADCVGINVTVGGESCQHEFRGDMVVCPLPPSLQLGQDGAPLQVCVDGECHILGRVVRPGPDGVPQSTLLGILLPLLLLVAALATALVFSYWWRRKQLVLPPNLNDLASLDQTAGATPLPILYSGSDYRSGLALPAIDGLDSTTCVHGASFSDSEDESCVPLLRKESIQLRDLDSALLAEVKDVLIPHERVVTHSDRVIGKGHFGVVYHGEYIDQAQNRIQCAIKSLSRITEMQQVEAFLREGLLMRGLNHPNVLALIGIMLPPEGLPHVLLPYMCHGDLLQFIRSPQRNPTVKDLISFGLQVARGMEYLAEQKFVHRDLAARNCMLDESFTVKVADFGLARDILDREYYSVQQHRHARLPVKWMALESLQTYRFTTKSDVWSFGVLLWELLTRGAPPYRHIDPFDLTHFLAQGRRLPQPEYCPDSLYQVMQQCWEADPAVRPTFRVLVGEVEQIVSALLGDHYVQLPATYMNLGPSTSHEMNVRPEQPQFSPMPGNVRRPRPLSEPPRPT

[23] = target: Proto-oncogene tyrosine-protein kinase Src (Homo sapiens, UniProt P12931); experiment: Inhibition of SRC (unknown origin) incubated for 1 hr by spectrophotometric analysis
Angiopoietin-1 receptor = Angiopoietin-1 receptor (Homo sapiens, UniProt Q02763); experiment: Inhibition of TIE2 (unknown origin) incubated for 1 hr by spectrophotometric analysis
[24] = target: High affinity nerve growth factor receptor (Homo sapiens, UniProt P04629); experiment: Inhibition of TRKA (unknown origin) incubated for 1 hr by spectrophotometric analysis
Sequence of High affinity nerve growth factor receptor (P04629 whole entry): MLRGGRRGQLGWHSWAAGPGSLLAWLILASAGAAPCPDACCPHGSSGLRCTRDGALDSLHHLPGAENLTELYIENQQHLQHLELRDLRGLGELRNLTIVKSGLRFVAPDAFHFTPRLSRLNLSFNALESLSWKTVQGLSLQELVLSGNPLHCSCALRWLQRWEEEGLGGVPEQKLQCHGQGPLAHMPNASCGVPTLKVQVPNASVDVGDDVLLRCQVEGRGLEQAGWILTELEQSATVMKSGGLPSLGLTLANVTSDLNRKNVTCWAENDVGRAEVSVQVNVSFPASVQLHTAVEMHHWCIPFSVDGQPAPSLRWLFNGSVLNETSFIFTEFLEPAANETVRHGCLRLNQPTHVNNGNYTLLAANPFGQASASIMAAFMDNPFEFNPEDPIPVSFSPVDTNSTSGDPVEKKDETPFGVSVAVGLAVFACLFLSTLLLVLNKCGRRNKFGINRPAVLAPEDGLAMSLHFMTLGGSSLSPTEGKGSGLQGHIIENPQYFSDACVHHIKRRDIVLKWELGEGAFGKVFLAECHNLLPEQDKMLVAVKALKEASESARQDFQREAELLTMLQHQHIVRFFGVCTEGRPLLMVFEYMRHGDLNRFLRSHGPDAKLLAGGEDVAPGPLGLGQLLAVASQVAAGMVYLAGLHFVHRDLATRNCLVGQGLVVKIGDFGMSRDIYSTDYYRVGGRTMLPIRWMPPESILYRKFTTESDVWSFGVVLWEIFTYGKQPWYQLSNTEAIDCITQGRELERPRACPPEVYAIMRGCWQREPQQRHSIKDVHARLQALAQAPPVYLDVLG

[25] = target: Non-receptor tyrosine-protein kinase TYK2 (Homo sapiens, UniProt P29597); experiment: Inhibition of TYK2 (unknown origin) incubated for 1 hr by spectrophotometric analysis

CN1C(=O)COc2c1cnc1ccc(Sc3nnc4c(F)cc(-c5cnn(C)c5)cn34)cc21 [DALMELITINIB]
IC50 [1]: 0.002 µM
IC50 [2]: 0.007 µM
IC50 (NCI-H1993): 0.014 µM
IC50 [3]: > 10 µM
IC50 [4]: 0.033 µM
IC50 [5]: > 30 µM
IC50 [6]: > 30 µM
IC50 [7]: 8.69 µM
IC50 [8]: > 30 µM
IC50 (Ephrin type-B receptor 1): > 30 µM
IC50 [9]: > 30 µM
IC50 [10]: > 30 µM
IC50 [11]: > 30 µM
IC50 [12]: > 30 µM
IC50 [13]: > 30 µM
IC50 [14]: > 30 µM
IC50 [15]: > 30 µM
IC50 [16]: > 30 µM
IC50 [17]: > 30 µM
IC50 [18]: > 30 µM
IC50 [19]: > 30 µM
IC50 [20]: > 30 µM
IC50 [21]: > 30 µM
IC50 [22]: > 30 µM
IC50 [23]: 15.5 µM
IC50 (Angiopoietin-1 receptor): > 30 µM
IC50 [24]: > 30 µM
IC50 [25]: > 30 µM
